Values belong to the molecule of their own block, whether it stands above or below them. *1 amine or outer side, *2 acyl side, *3 side chain or, on linkers, in order; H or OH if unused. Where a SMILES comes first, the peptide text is derived from it. Bridges are numbered along the chain shown (N, C = ends). [ ]: non-standard residue; d: D form. The star is where a group is joined. Ala(E-styryl) = N[C@@H](C/C=C/c1ccccc1)C(=O)O; dBpa = N[C@H](Cc1ccc(C(=O)c2ccccc2)cc1)C(=O)O; Maleoyl = O=C(/C=C\C(=O)[*:2])[*:1]; NH(CH2CH2O)2CH2CH2NH2 = NCCOCCOCCN*; Cha = N[C@@H](CC1CCCCC1)C(=O)O; Dab = NCC[C@H](N)C(=O)O; Dap = NC[C@H](N)C(=O)O
Key:
[1] = target: T1, full-length chicken c-Src (Gallus gallus, UniProt P00523); assay: Z'-LYTE kinase assay (Tyr 02 substrate peptide), full-length c-Src; format: biochemical
T1 construct: assayed against full-length chicken c-Src
Procedure: For the FRET-based endpoint assay, kinase assays were performed using Invitrogen's Z′-LYTE kinase assay using the Tyr 02 substrate peptide (based upon the optimal Abl substrate peptide […]) according to the manufacturer's instructions. Assays were performed at near KM ATP concentrations for full-length c-Src and full-length c-Src T338I-50 μM and 7 μM, respectively.
Derivatives of MC4 were synthesized by Fmoc solid-phase peptide synthesis and assayed against full-length chicken c-Src using Invitrogen's Z′-LYTE kinase assay. […] Holding the amino acids at the A and C positions constant, variants of MC4 containing phenylalanine, cyclohexylalanine, pentafluorophenylalanine, and N-methyl-phenylalanine at the B position in place of furylalanine were synthesized and assayed.

Abl = target: T2, Abl (Homo sapiens, UniProt P00519); assay: Continuous spectrophotometric kinase activity assay; format: biochemical
T2 construct: human c-Abl (residues 229-512); made in house
T2 sequence (P00519 229-512): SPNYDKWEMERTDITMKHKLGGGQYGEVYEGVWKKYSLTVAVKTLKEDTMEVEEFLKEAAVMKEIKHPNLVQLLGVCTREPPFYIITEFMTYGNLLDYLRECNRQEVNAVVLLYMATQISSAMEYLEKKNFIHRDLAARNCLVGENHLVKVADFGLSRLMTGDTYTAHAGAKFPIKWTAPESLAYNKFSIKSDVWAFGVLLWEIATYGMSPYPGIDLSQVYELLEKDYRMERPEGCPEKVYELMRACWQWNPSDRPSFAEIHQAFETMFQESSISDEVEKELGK
Description: (§1) Kinase domain constructs of human c-Abl (residues 229-512), chicken c-Src (residues 251-533 and residues 83-533), murine Lck (residues 227-509), and human Hck (residues 166-445) were expressed as previously described (Seeliger, Young et al. 2005; Seeliger, Nagar et al. 2007; the entire contents of each of which are incorporated by reference herein). Mutations were introduced into chicken c-Src (residues 251-533) (T338I, C277Q, L297M) by site-directed mutagenesis and verified by DNA sequencing.
(§2) In vitro kinase inhibition assays were performed using either a continuous spectrophotometric assay or a FRET-based endpoint assay.
(§3) The original characterization of kinase inhibition was performed with a commercial kinase assay that relies on a fluorescently labeled peptide kinase substrate (Z-LYTE, Invitrogen). For further characterization, a continuous spectrophotometric kinase activity assay was employed that is easily adapted to different substrate peptides as well as a wider range of peptide and ATP concentrations.

[2] = target: T3, Src kinase domain (chicken c-Src residues 251-533) (Gallus gallus, UniProt P00523); assay: as above; format: biochemical; conditions: Src kinase domain
T3 construct: chicken c-Src (residues 251-533 and residues 83-533); made in house
Description: as §1, §2, §3

Lck = target: T4, Lck (Mus musculus, UniProt P06240); assay: as above; format: biochemical, murine
T4 construct: murine Lck (residues 227-509); made in house
T4 sequence (P06240 227-509): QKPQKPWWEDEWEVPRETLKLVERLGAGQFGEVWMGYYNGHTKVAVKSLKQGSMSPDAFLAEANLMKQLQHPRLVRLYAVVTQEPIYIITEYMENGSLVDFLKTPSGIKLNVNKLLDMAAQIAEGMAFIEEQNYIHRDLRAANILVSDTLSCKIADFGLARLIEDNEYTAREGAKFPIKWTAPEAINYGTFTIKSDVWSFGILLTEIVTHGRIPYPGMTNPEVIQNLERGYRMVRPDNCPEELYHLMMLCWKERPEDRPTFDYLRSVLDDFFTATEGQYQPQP
Description: as §1, §2, §3

HCK = HCK (Homo sapiens, UniProt P08631); assay: as above; format: biochemical; design: Kinase domain constructs of human c-Abl (residues 229-512), chicken c-Src (residues 251-533 and residues 83-533), murine Lck (residues 227-509), and human Hck (residues 166-445); made in house; conditions: 300 μM Src optimal peptide
Chain of HCK (P08631 262-515 limits assumed): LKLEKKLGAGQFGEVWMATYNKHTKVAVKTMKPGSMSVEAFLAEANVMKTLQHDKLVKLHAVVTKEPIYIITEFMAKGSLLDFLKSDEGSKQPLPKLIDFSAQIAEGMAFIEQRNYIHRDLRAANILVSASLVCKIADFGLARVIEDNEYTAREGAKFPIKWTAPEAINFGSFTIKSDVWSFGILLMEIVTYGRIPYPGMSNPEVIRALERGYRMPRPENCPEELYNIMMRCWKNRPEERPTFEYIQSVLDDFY
Description: as §1, §2, §3

Src kinase = Src kinase (Homo sapiens, UniProt P12931); assay: Z'-LYTE kinase assay (Invitrogen), Src; format: biochemical; design: full-length kinase in the Z-LYTE assay vs. kinase domain in the current study; purchased Millipore; conditions: for IC50: Z'-LYTE, ATP near KM; for Src kinase inhibition (in words): non-DNA-linked compound
Chain of Src kinase (P12931 whole entry, the tested form may be a part): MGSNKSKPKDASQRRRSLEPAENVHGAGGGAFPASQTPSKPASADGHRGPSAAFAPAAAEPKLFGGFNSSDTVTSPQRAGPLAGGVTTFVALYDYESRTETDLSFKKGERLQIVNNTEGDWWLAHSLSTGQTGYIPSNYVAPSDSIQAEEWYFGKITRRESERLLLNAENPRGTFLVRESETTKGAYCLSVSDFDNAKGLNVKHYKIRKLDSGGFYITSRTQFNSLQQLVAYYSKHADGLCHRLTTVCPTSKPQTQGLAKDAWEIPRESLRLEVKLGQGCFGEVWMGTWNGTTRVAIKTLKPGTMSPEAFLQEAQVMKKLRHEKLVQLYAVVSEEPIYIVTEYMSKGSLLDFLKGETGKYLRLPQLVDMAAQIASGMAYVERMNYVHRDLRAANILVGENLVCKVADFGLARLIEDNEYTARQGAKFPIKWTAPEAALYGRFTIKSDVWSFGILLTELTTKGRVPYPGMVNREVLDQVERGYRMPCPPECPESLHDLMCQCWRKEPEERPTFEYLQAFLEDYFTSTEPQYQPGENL
Procedure: Nine macrocycles enriched in the Src selection (FIG. 5) and synthesized as described above were assayed in vitro for the ability to inhibit Src kinase activity. Kinase activity was assayed in the presence of varying concentrations of macrocycle using the FRET-based Z′-LYTE assay (Invitrogen).
(§4) Src IC50 determinations and single-point inhibition measurements were performed using Invitrogen's Z′-LYTE Tyr 02 assay kit according to the manufacturer's protocols. All kinase assays were performed at ATP concentrations near KM,ATP values, except where noted otherwise. Active human Src kinase was obtained from Millipore. For kinome profiling and IC50 determinations against non-Src kinases, compounds were submitted to Invitrogen's SelectScreen Kinase Profiling Service.

Pim1 = Pim1 (Homo sapiens, UniProt P11309); assay: Z'-LYTE kinase assay (Invitrogen SelectScreen); format: biochemical; conditions: Pim1
Chain of Pim1 (P11309 whole entry): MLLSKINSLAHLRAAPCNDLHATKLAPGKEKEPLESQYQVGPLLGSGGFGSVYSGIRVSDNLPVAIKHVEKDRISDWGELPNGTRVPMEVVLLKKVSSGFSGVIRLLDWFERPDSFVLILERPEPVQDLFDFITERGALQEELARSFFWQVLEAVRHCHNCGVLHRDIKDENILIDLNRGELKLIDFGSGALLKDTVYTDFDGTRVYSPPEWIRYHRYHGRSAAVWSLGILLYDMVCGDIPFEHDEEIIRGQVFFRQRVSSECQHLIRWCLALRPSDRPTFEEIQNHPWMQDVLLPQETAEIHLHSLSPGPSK
Description: (§5) Macrocycles A10-B1-C11-D5 and A10-B8-C11-D5 were enriched 2- to 6-fold upon selection for binding Akt3, MAPKAPK2, Pim1, and VEGFR2 (FIG. 6). These two macrocycles are structurally similar, sharing nitrophenylalanine (A10) and cyclohexylstatine (C11) building blocks as well as the same lysine scaffold (D5), and differ only at the B building block with either furylalanine (B1) or cyclohexylalanine (B8) (FIG. 6). For assay purposes, the macrocycles were synthesized with C-terminal PEG-diamine linkers to aid solubility, and then tested for the ability to inhibit Akt3, MAPKAPK2, Pim1 and VEGFR2.
as §4

[3] = target: p38α-MAPKAPK2 kinase cascade (P38α-MK2) (Homo sapiens, UniProt P49137+Q16539); assay: Z'-LYTE kinase cascade assay (Invitrogen SelectScreen); format: biochemical
Chain of p38α-MAPKAPK2 kinase cascade (P38α-MK2) (Q16539 whole entry): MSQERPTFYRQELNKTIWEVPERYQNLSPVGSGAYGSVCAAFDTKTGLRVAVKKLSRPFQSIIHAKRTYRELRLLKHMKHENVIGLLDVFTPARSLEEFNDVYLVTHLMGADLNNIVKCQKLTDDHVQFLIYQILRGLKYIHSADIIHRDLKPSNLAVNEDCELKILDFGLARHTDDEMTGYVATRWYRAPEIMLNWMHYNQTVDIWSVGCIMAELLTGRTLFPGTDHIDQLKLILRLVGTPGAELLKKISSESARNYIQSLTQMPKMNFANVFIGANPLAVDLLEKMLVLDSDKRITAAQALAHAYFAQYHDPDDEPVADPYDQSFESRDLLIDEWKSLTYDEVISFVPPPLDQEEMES
Chain of p38α-MAPKAPK2 kinase cascade (P38α-MK2) (P49137 whole entry): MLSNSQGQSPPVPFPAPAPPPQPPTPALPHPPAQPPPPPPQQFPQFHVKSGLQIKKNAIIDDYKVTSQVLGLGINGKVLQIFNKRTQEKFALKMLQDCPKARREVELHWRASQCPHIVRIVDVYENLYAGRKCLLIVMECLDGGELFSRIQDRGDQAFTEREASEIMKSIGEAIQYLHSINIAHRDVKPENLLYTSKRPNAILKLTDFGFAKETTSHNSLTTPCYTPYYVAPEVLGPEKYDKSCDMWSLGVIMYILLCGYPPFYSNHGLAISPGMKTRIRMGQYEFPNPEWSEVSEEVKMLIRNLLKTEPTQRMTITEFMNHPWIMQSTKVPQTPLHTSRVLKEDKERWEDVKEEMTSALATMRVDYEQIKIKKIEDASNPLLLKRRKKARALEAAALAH
Description: as §5, §4

[4] = 5 μM ATP, 100 μM Src optimal peptide
[5] = 5 μM ATP, 300 μM Src optimal peptide
[6] = 250 μM ATP, 300 μM Src optimal peptide

increase in Src inhibition potency relative to parent macrocycle [1]: 3 fold
IC50 ([1]; full-length chicken c-Src, ATP near KM (50 μM)): 0.08 µM
IC50 (Abl; [4]): > 100 µM
IC50 (Abl; [5]): > 100 µM
IC50 (Abl; [6]): > 100 µM
IC50 [2, 4]: 0.6 µM
IC50 [2, 5]: 0.8 µM
IC50 [2, 6]: 1.8 µM
IC50 (Lck; [4]): 5.2 µM
IC50 (Lck; [5]): 5.5 µM
IC50 (Lck; [6]): 10 µM
IC50 (HCK; 5 μM ATP): 6.3 µM
IC50 (HCK; 250 μM ATP): 11 µM
SMILES: NC(=O)[C@@H]1CCCNC(=O)[C@H](Cc2ccc([N+](=O)[O-])cc2)NC(=O)[C@H](Cc2ccccc2)NC(=O)[C@H](CC2CC2)NC(=O)/C=C/C(=O)N1 [MC4.1]

IC50 (Src kinase): 10 µM
SMILES: C=CC[C@@H]1NC(=O)/C=C\C(=O)N[C@H](C(N)=O)CCNC(=O)[C@H](CCCNC(=O)c2cnccn2)NC(=O)[C@H](Cc2ccco2)NC1=O [cis-A11-B1-C3-D7]

IC50 (Src kinase): 85 µM
SMILES: NC(=O)[C@@H]1CCCCNC(=O)[C@H](CCCNC(=O)c2cnccn2)NC(=O)[C@H](Cc2ccco2)NC(=O)[C@H](CC2CC2)NC(=O)/C=C\C(=O)N1 [cis-A11-B1-C5-D5]

IC50 (Src kinase): 1.5 µM
SMILES: NC(=O)[C@@H]1CCNC(=O)[C@H](Cc2ccc([N+](=O)[O-])cc2)NC(=O)[C@H](Cc2ccco2)NC(=O)[C@H](CC2CC2)NC(=O)/C=C/C(=O)N1 [trans-A10-B1-C5-D7]

IC50 (Src kinase): 36 µM
SMILES: NC(=O)[C@@H]1CCNC(=O)[C@H](CCCNC(=O)c2cnccn2)NC(=O)[C@H](CC2CCCCC2)NC(=O)[C@H](CC2CC2)NC(=O)/C=C\C(=O)N1 [cis-A11-B8-C5-D7]

IC50 (Src kinase): 8.9 µM
SMILES: NC(=O)[C@@H]1CCNC(=O)[C@H](Cc2ccc([N+](=O)[O-])cc2)NC(=O)[C@H](Cc2ccco2)NC(=O)[C@H](CC2CC2)NC(=O)/C=C\C(=O)N1 [cis-A10-B1-C5-D7]

IC50 (Src kinase): > 100 µM
SMILES: CS(=O)(=O)CC[C@@H]1NC(=O)[C@H](Cc2ccco2)NC(=O)[C@H](CC2CC2)NC(=O)/C=C/C(=O)N[C@H](C(N)=O)CCNC1=O [trans-A9-B1-C5-D7]

IC50 (Src kinase): > 100 µM
SMILES: NC(=O)[C@@H]1CCNC(=O)[C@H](CCCNC(=O)c2cnccn2)NC(=O)[C@H](CC2CCCCC2)NC(=O)[C@H](CC2CC2)NC(=O)/C=C/C(=O)N1 [trans-A11-B8-C5-D7]

Src kinase inhibition (in words) (Src kinase): did not inhibit Src
SMILES: CS(=O)(=O)CC[C@@H]1NC(=O)[C@H](Cc2ccco2)NC(=O)[C@H](CC2CC2)NC(=O)C=CC(=O)N[C@H](C(N)=O)CCNC1=O [Macrocycle A9-B1-C5-D7]

difference in potency between cis and trans stereoisomers (Src) (Src kinase): ~10 fold
SMILES: NC(=O)[C@@H]1CCCNC(=O)[C@H](Cc2ccc([N+](=O)[O-])cc2)NC(=O)[C@H](Cc2ccco2)NC(=O)[C@H](CC2CC2)NC(=O)C=CC(=O)N1 [Macrocycle A10-B1-C5-D6]

IC50 (Src kinase): 21 µM
SMILES: NC(=O)[C@@H]1CCNC(=O)[C@H](CCCNC(=O)c2cnccn2)NC(=O)[C@H](Cc2ccco2)NC(=O)[C@H](C/C=C/c2ccccc2)NC(=O)/C=C/C(=O)N1 [trans-A11-B1-C10-D7]

IC50 (Src kinase): > 100 µM
SMILES: NC(=O)[C@@H]1CCNC(=O)[C@H](CCCNC(=O)c2cnccn2)NC(=O)[C@H](CC2CCCCC2)NC(=O)[C@H](C/C=C/c2ccccc2)NC(=O)/C=C/C(=O)N1 [trans-A11-B8-C10-D7]

SMILES: NCCOCCOCCNC(=O)[C@@H]1CCNC(=O)/C=C\C(=O)N[C@@H](C/C=C/c2ccccc2)C(=O)N[C@@H](CC2CCCCC2)C(=O)N[C@H](Cc2ccc(C(=O)c3ccccc3)cc2)C(=O)N1 [cis-A12-B8-C10-D3] ([Ala(E-styryl)][Cha][dBpa][Dab]-{NH(CH2CH2O)2CH2CH2NH2}; linker N-4 via Maleoyl)
IC50 (Pim1): 25 µM
IC50 [3]: 12 µM

Src kinase inhibition (in words) (Src kinase): abolished Src inhibition
SMILES: NC(=O)[C@@H]1CCCNC(=O)[C@H](Cc2ccccc2)NC(=O)[C@H](Cc2ccco2)NC(=O)[C@H](CC2CC2)NC(=O)/C=C/C(=O)N1 [trans-Phe-B1-C5-D6]

IC50 (Src kinase): 7 µM
SMILES: NC(=O)[C@@H]1CCNC(=O)[C@H](CCCNC(=O)c2cnccn2)NC(=O)[C@H](Cc2ccco2)NC(=O)[C@H](C/C=C/c2ccccc2)NC(=O)/C=C\C(=O)N1 [cis-A11-B1-C10-D7]

IC50 (Src kinase): 48 µM
SMILES: C=CC[C@@H]1NC(=O)/C=C/C(=O)N[C@H](C(N)=O)CCNC(=O)[C@H](CCCNC(=O)c2cnccn2)NC(=O)[C@H](Cc2ccco2)NC1=O [trans-A11-B1-C3-D7]

IC50 (Src kinase): 12 µM
SMILES: NC(=O)[C@@H]1CCNC(=O)[C@H](CCCNC(=O)c2cnccn2)NC(=O)[C@H](Cc2ccco2)NC(=O)[C@H](CC2CC2)NC(=O)/C=C/C(=O)N1 [trans-A11-B1-C5-D7]

IC50 (Src kinase): > 100 µM
SMILES: NC(=O)[C@@H]1CCCCNC(=O)[C@H](CCCNC(=O)c2cnccn2)NC(=O)[C@H](Cc2ccco2)NC(=O)[C@H](CC2CC2)NC(=O)/C=C/C(=O)N1 [trans-A11-B1-C5-D5]

SMILES: NCCOCCOCCNC(=O)[C@@H]1CNC(=O)/C=C\C(=O)N[C@@H](C/C=C/c2ccccc2)C(=O)N[C@@H](CC2CCCCC2)C(=O)N[C@H](Cc2ccc(C(=O)c3ccccc3)cc2)C(=O)N1 [cis-A12-B8-C10-D4] ([Ala(E-styryl)][Cha][dBpa][Dap]-{NH(CH2CH2O)2CH2CH2NH2}; linker N-4 via Maleoyl)
IC50 (Pim1): 100 µM
IC50 [3]: 20 µM

— US8975232B2, “Macrocyclic kinase inhibitors and uses thereof” (President and Fellows of Harvard College, priority 2010, dated 2015)
